From patent publication US20230255943A1, “MMP-9 AND MMP-12 INHIBITION FOR TREATING SPINAL CORD INJURY OR RELATED INJURY TO NEUROLOGICAL TISSUE” (The University of Birmingham, priority 2020, published 2023)

System: SCI-induced oedema
Assay: Example 3: spinal cord water content with aquaporin-4 relocalisation inhibitors
Settings: in vivo
Procedure: The lesion site+3 mm either side for mice and the lesion site+5 mm either side for the rat DC model were dissected out and the water content of the spinal cord (as a measure of oedema) was determined at 3 days after DC and CC SCI, as described previously (S. Li, C. H. Tator, Effects of MK801 on evoked potentials, spinal cord blood flow and cord edema in acute spinal cord injury in rats. Spinal Cord 37, 820-832 (1999)). Spinal cords containing the lesion site were weighed on aluminium foil, dried at 105° C. for 24 hr, and re-weighed. The percent water content was calculated as: water content (%)=[(wet weight-dry weight)/wet weight]×100%.
Using similar techniques to those described in Example 1, the water content in the spinal cord as a measure of injury-induced oedema was determined for various agents and aquaporin-4 inhibitors, namely TFP, PKAi, PKCi and TGN-020—see FIG. 21.

CN1CCN(CCCN2c3ccccc3Sc3ccc(C(F)(F)F)cc32)CC1 [TFP, trifluoperazine]
SCI-induced oedema, water content (FIG. 21): suppress SCI-induced oedema
